Reference: PubChem BioAssay (NCI)
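Interpolation was linear, between the two tested concentrations surrounding the appropriate level; five concentrations were tested over 48 hours in 96-well plates. The concentration for full growth arrest is given as TGI.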

Key:
Assay in all cases: inhibition of tumour cell growth, NCI panel, 48 h
NCI-H23 lung = tested on: NCI-H23 lung
CCRF-CEM leukemia = tested on: CCRF-CEM leukemia
UACC-62 melanoma = tested on: UACC-62 melanoma
HOP-92 NSCLC = tested on: HOP-92 NSCLC
LOX IMVI melanoma = tested on: LOX IMVI melanoma
NCI-H460 lung = tested on: NCI-H460 lung
OVCAR-3 ovarian = tested on: OVCAR-3 ovarian
UACC-257 melanoma = tested on: UACC-257 melanoma
OVCAR-4 ovarian = tested on: OVCAR-4 ovarian
NCI-H522 lung = tested on: NCI-H522 lung
NCI-H226 lung = tested on: NCI-H226 lung
SNB-19 CNS = tested on: SNB-19 CNS
SK-OV-3 ovarian = tested on: SK-OV-3 ovarian
IGROV1 ovarian = tested on: IGROV1 ovarian
MALME-3M melanoma = tested on: MALME-3M melanoma
SF-295 CNS = tested on: SF-295 CNS
MOLT-4 leukemia = tested on: MOLT-4 leukemia
ACHN renal = tested on: ACHN renal
NCI/ADR-RES ovarian = tested on: NCI/ADR-RES ovarian

Structure (SMILES) | TGI (NCI-H23 lung) | TGI (CCRF-CEM leukemia) | TGI (UACC-62 melanoma) | TGI (HOP-92 NSCLC) | TGI (LOX IMVI melanoma) | TGI (NCI-H460 lung) | TGI (OVCAR-3 ovarian) | TGI (UACC-257 melanoma) | TGI (OVCAR-4 ovarian) | TGI (NCI-H522 lung) | TGI (NCI-H226 lung) | TGI (SNB-19 CNS) | TGI (SK-OV-3 ovarian) | TGI (IGROV1 ovarian) | TGI (MALME-3M melanoma) | TGI (SF-295 CNS) | TGI (MOLT-4 leukemia) | TGI (ACHN renal) | TGI (NCI/ADR-RES ovarian)
CCOc1ccc(NC(=O)C(=O)NO)cc1 | > 100 µM | > 100 µM | > 100 µM | > 100 µM | > 100 µM | > 100 µM | > 100 µM | > 100 µM | > 100 µM | > 100 µM | > 100 µM | > 100 µM | > 100 µM | > 100 µM | > 100 µM | > 100 µM | > 100 µM | > 100 µM | –
CC1=NOC2(C1)C(=O)Nc1ccccc12 (stereo not drawn) | > 100 µM | > 100 µM | > 100 µM | – | > 100 µM | > 100 µM | > 100 µM | > 100 µM | > 100 µM | > 100 µM | > 100 µM | > 100 µM | > 100 µM | > 100 µM | > 100 µM | > 100 µM | > 100 µM | > 100 µM | > 100 µM
Cc1ccc(S(=O)(=O)n2c3c(c4ccccc42)CCN2C(=O)C(S(=O)(=O)c4ccccc4)=CCC32)cc1 (stereo not drawn) | 0.335 µM | – | 0.622 µM | 0.315 µM | 0.452 µM | 1.51 µM | 0.332 µM | 0.319 µM | 0.436 µM | 0.567 µM | – | 1.91 µM | 2.61 µM | 0.36 µM | 0.463 µM | 3.49 µM | – | 0.393 µM | –
CCOCN1COCN=C1NC#N | > 100 µM | – | > 100 µM | > 100 µM | – | > 100 µM | > 100 µM | > 100 µM | > 100 µM | > 100 µM | > 100 µM | > 100 µM | > 100 µM | > 100 µM | > 100 µM | > 100 µM | > 100 µM | > 100 µM | –
CCOC(=O)[C@]12C(=C(c3ccccc3)O[C@H]3C=CCC[C@H]31)C(=O)C(=O)N2c1ccccc1 | > 100 µM | – | > 100 µM | – | – | > 100 µM | > 100 µM | – | > 100 µM | > 100 µM | – | > 100 µM | > 100 µM | – | > 100 µM | > 100 µM | 61.3 µM | > 100 µM | > 100 µM
CCCCCCCc1cc(OC(=O)c2c(C)cc(OC)cc2O)cc(O)c1C(=O)O | 43.1 µM | 78.6 µM | 43.7 µM | 41.8 µM | 48.7 µM | 36 µM | 28.7 µM | 87.7 µM | 78.2 µM | 48.3 µM | – | 58.3 µM | 69.2 µM | 55.3 µM | 37.6 µM | 50 µM | 88.3 µM | 62.8 µM | –
COc1cc(/C=N/n2c(Cc3ccc(Cl)cc3)n[nH]c2=O)cc(OC)c1OC | > 100 µM | > 100 µM | > 100 µM | – | – | > 100 µM | > 100 µM | > 100 µM | > 100 µM | – | > 100 µM | > 100 µM | > 100 µM | – | > 100 µM | > 100 µM | > 100 µM | > 100 µM | > 100 µM
Cc1ccc(N=NC2S/C(=C(\C#N)c3nc4ccccc4[nH]3)N(c3ccccc3)C2=O)cc1 (stereo not drawn) | > 100 µM | > 100 µM | > 100 µM | > 100 µM | > 100 µM | > 100 µM | > 100 µM | > 100 µM | > 100 µM | > 100 µM | > 100 µM | > 100 µM | > 100 µM | > 100 µM | > 100 µM | > 100 µM | – | > 100 µM | –
Cn1c(N)c(C(N)=O)[nH]c1=S | > 100 µM | > 100 µM | > 100 µM | – | > 100 µM | > 100 µM | > 100 µM | – | > 100 µM | > 100 µM | > 100 µM | > 100 µM | > 100 µM | > 100 µM | > 100 µM | > 100 µM | > 100 µM | > 100 µM | > 100 µM
CC(C)(C)n1c(=O)[nH]n(C2NN=Cc3cccc4cccc2c34)c1=O (stereo not drawn) | > 100 µM | 63.6 µM | > 100 µM | – | > 100 µM | > 100 µM | > 100 µM | > 100 µM | > 100 µM | – | > 100 µM | > 100 µM | > 100 µM | – | > 100 µM | – | 81.1 µM | – | > 100 µM
O=C1[C@@H]2C(c3ccc(Cl)cc3Cl)=NO[C@@H]2C(=O)N1c1ccc(Cc2ccc(N3C(=O)[C@H]4C(c5ccc(Cl)cc5Cl)=NO[C@H]4C3=O)cc2)cc1 | > 100 µM | > 100 µM | > 100 µM | 41.4 µM | > 100 µM | – | > 100 µM | > 100 µM | > 100 µM | – | > 100 µM | – | > 100 µM | > 100 µM | > 100 µM | > 100 µM | > 100 µM | – | –
N#Cc1n[nH]n(C2CCCCC2)c1=O | > 100 µM | > 100 µM | > 100 µM | – | > 100 µM | > 100 µM | > 100 µM | > 100 µM | > 100 µM | > 100 µM | > 100 µM | > 100 µM | > 100 µM | > 100 µM | > 100 µM | > 100 µM | > 100 µM | > 100 µM | > 100 µM
COc1ccc(/C(Cl)=C(/c2ccc(O)cc2)c2ccc(OCCN(C)C)cc2)cc1 | 29.1 µM | – | 32.9 µM | – | 12.6 µM | 26 µM | 28.8 µM | 9.09 µM | 27.1 µM | 25.1 µM | 34.4 µM | 27.1 µM | 26.3 µM | 33.2 µM | 14.4 µM | 16.3 µM | – | 27.8 µM | –
CCOc1ccc(Nc2nc3c(s2)C(=O)c2ccccc2C3=O)cc1 | – | > 100 µM | 5.13 µM | 27.6 µM | 15.8 µM | 38.9 µM | 12.9 µM | 27.4 µM | 21.3 µM | 78.7 µM | – | 30.1 µM | 34.3 µM | 26.7 µM | 8.19 µM | 23.5 µM | > 100 µM | 28.9 µM | –
